Reference: US12471596B2 (priority 2019, dated 2025)

Tests used:
[1] = test system: Phytophthora infestans; assay: microbe, parasite or virus in culture; assay type: cell-based; settings: in Secale cereale, 168 h, read-out: control compared to the untreated check
[2] = test system: Phytophthora infestans; assay: whole plant or invertebrate; assay type: in vivo, Phytophthora infestans on tomato plants; settings: in Solanum lycopersicum, 24 h, read-out: control compared to the untreated check
[3] = test system: Plasmopara viticola; assay: Example B: Plasmopara viticola test in grape (greenhouse, preventive); assay type: in vivo; settings: 24 h, grape seedlings sprayed one day before inoculation, disease severity rating, read-out: control compared to the untreated check
Method: Example B: Plasmopara viticola Test in Grape
The compound were dissolved in 2% DMSO/Acetone & then mixed with water containing emulsifier to a calibrated spray volume of 50 mL. The spray solutions were poured into spray bottles for further applications.
To test the preventive activity of compounds, 5 week old healthy grape seedlings, cv. Thompson seedless, raised in the greenhouse, were sprayed with the active compound preparation at the stated application rates inside spray cabinets using hallow cone nozzles. One day after treatment, the plants were inoculated with an inoculum suspension (sterile water) containing 6×10^4 Plasmopara viticola inoculum. The inoculated plants were then kept in a greenhouse chamber at 18-21° C. temperature and 95-100% relative humidity for disease expression.
A visual assessment of the performance of the compound was carried out by rating the disease severity (0-100% scale) on treated plants 3, 7 and 10 days after application. Efficacy (% control) of the compound was calculated by comparing the disease rating in the treatment with the one of the untreated control. The compounds were also assessed for their plant compatibility by recording symptoms like necrosis, chlorosis & stunting

SMILES	inhibition of growth at 30 ppm [1] [%]	pest or weed control at 50 ppm [2] [%]	pest or weed control at 50 ppm [3] [%]
O=C(COc1nccnc1C(F)(F)F)N1CCC(c2nc(C3=NOC(c4c(F)cccc4Cl)C3)cs2)CC1 (stereo not drawn) [Compound 1, 1-(4-(4-(5-(2-chloro-6-fluorophenyl)-4,5-dihydroisoxazol-3-yl)thiazol-2-yl)piperidin-1-yl)-2-((3-(trifluoromethyl)pyrazin-2-yl)oxy)ethan-1-one]	≥ 70	≥ 70	≥ 70
O=C(COc1nccnc1C(F)(F)F)N1CCC(c2nc(C3=NOC(c4c(Cl)cc(Cl)cc4Cl)C3)cs2)CC1 (stereo not drawn) [Compound 2, 1-(4-(4-(5-(2,4,6-trichlorophenyl)-4,5-dihydroisoxazol-3-yl)thiazol-2-yl)piperidin-1-yl)-2-((3-(trifluoromethyl)pyrazin-2-yl)oxy)ethan-1-one]	≥ 70	≥ 70	≥ 70
O=C(COc1nccnc1C(F)(F)F)N1CCC(c2nc(C3=NOC(c4c(Cl)cccc4Cl)C3)cs2)CC1 (stereo not drawn) [Compound 3, 1-(4-(4-(5-(2,6-dichlorophenyl)-4,5-dihydroisoxazol-3-yl)thiazol-2-yl)piperidin-1-yl)-2-((3-(trifluoromethyl)pyrazin-2-yl)oxy)ethan-1-one]	≥ 70	≥ 70	≥ 70
O=C(COc1nccnc1C(F)(F)F)N1CCC(c2nc(C3=NOC(c4c(F)cccc4F)C3)sc2Cl)CC1 (stereo not drawn) [Compound 22, 1-(4-(5-chloro-2-(5-(2,6-difluorophenyl)-4,5-dihydroisoxazol-3-yl)thiazol-4-yl)piperidin-1-yl)-2-((3-(trifluoromethyl)pyrazin-2-yl)oxy)ethan-1-one]	–	–	≥ 70
O=C(COc1nccnc1C(F)(F)F)N1CCC(c2csc(C3=NOC(c4c(F)cccc4F)C3)n2)CC1 (stereo not drawn) [Compound 23, 1-(4-(2-(5-(2,6-difluorophenyl)-4,5-dihydroisoxazol-3-yl)thiazol-4-yl)piperidin-1-yl)-2-((3-(trifluoromethyl)pyrazin-2-yl)oxy)ethan-1-one]	≥ 70	–	≥ 70
COc1ccnc(OCC(=O)N2CCC(c3nc(C4=NOC(c5c(F)cccc5F)C4)cs3)CC2)n1 (stereo not drawn) [Compound 36, 1-(4-(4-(5-(2,6-difluorophenyl)-4,5-dihydroisoxazol-3-yl)thiazol-2-yl)piperidin-1-yl)-2-((4-methoxypyrimidin-2-yl)oxy)ethan-1-one]	≥ 70	≥ 70	–
O=C(COc1ccc(C(F)(F)F)nn1)N1CCC(c2nc(C3=NOC(c4c(Cl)cc(Cl)cc4Cl)C3)cs2)CC1 (stereo not drawn) [Compound 37, 1-(4-(4-(5-(2,4,6-trichlorophenyl)-4,5-dihydroisoxazol-3-yl)thiazol-2-yl)piperidin-1-yl)-2-((6-(trifluoromethyl)pyridazin-3-yl)oxy)ethan-1-one]	≥ 70	≥ 70	–
O=C(COc1ccc(C(F)(F)F)nn1)N1CCC(c2nc(C3=NOC(c4c(Cl)cccc4Cl)C3)cs2)CC1 (stereo not drawn) [Compound 38, 1-(4-(4-(5-(2,6-dichlorophenyl)-4,5-dihydroisoxazol-3-yl)thiazol-2-yl)piperidin-1-yl)-2-((6-(trifluoromethyl)pyridazin-3-yl)oxy)ethan-1-one]	≥ 70	≥ 70	–
O=C(COc1ccc(C(F)(F)F)nn1)N1CCC(c2nc(C3=NOC(c4c(F)cccc4Cl)C3)cs2)CC1 (stereo not drawn) [Compound 39, 1-(4-(4-(5-(2-chloro-6-fluorophenyl)-4,5-dihydroisoxazol-3-yl)thiazol-2-yl)piperidin-1-yl)-2-((6-(trifluoromethyl)pyridazin-3-yl)oxy)ethan-1-one]	≥ 70	≥ 70	–
N#Cc1cccc(Cl)c1C1CC(c2csc(C3CCN(C(=O)COc4ccc(C(F)(F)F)nn4)CC3)n2)=NO1 (stereo not drawn) [Compound 40, 3-chloro-2-(3-(2-(1-(2-((6-(trifluoromethyl)pyridazin-3-yl)oxy)acetyl)piperidin-4-yl)thiazol-4-yl)-4,5-dihydroisoxazol-5-yl)benzonitrile]	≥ 70	≥ 70	–
CS(=O)(=O)Oc1cccc(Cl)c1C1CC(c2csc(C3CCN(C(=O)COc4ccc(C(F)(F)F)nn4)CC3)n2)=NO1 (stereo not drawn) [Compound 41, 3-chloro-2-(3-(2-(1-(2-((6-(trifluoromethyl)pyridazin-3-yl)oxy)acetyl)piperidin-4-yl)thiazol-4-yl)-4,5-dihydroisoxazol-5-yl)phenyl methanesulfonate]	≥ 70	≥ 70	–
O=C(COc1ccc(C(F)(F)F)nn1)N1CCC(c2nc(C3=NOC(c4c(F)cccc4F)C3)cs2)CC1 (stereo not drawn) [Compound 42, 1-(4-(4-(5-(2,6-difluorophenyl)-4,5-dihydroisoxazol-3-yl)thiazol-2-yl)piperidin-1-yl)-2-((6-(trifluoromethyl)pyridazin-3-yl)oxy)ethan-1-one]	≥ 70	≥ 70	–
O=C(COc1ccc(C(F)(F)F)nn1)N1CCC(c2nc(C3=NOC(c4c(F)cccc4Br)C3)cs2)CC1 (stereo not drawn) [Compound 43, 1-(4-(4-(5-(2-bromo-6-fluorophenyl)-4,5-dihydroisoxazol-3-yl)thiazol-2-yl)piperidin-1-yl)-2-((6-(trifluoromethyl)pyridazin-3-yl)oxy)ethan-1-one]	≥ 70	≥ 70	–
O=C(COc1nccnc1C(F)(F)F)N1CCC(c2nc(C3OCc4c(F)ccc(F)c4CO3)cs2)CC1 [Compound 64, 1-(4-(4-(6,9-difluoro-1,5-dihydrobenzo[e][1,3]dioxepin-3-yl)thiazol-2-yl)piperidin-1-yl)-2-((3-(trifluoromethyl)pyrazin-2-yl)oxy)ethan-1-one]	≥ 70	≥ 70	–
COc1nc(OC)nc(OCC(=O)N2CCC(c3nc(C4=NOC(c5c(F)cccc5Br)C4)cs3)CC2)n1 (stereo not drawn) [Compound 110, 1-(4-(4-(5-(2-bromo-6-fluorophenyl)-4,5-dihydroisoxazol-3-yl)thiazol-2-yl)piperidin-1-yl)-2-((4,6-dimethoxy-1,3,5-triazin-2-yl)oxy)ethan-1-one]	≥ 70	≥ 70	≥ 70
O=C(COc1nccnc1Cl)N1CCC(c2nc(C3=NOC(c4c(Cl)cc(Cl)cc4Cl)C3)cs2)CC1 (stereo not drawn) [Compound 123, 2-((3-chloropyrazin-2-yl)oxy)-1-(4-(4-(5-(2,4,6-trichlorophenyl)-4,5-dihydroisoxazol-3-yl)thiazol-2-yl)piperidin-1-yl)ethan-1-one]	–	≥ 70	≥ 70
O=C(COc1nccnc1Cl)N1CCC(c2nc(C3=NOC(c4c(F)cccc4Cl)C3)cs2)CC1 (stereo not drawn) [Compound 125, 1-(4-(4-(5-(2-chloro-6-fluorophenyl)-4,5-dihydroisoxazol-3-yl)thiazol-2-yl)piperidin-1-yl)-2-((3-chloropyrazin-2-yl)oxy)ethan-1-one]	–	≥ 70	≥ 70
CS(=O)(=O)Oc1cccc(Cl)c1C1CC(c2csc(C3CCN(C(=O)COc4nccnc4Cl)CC3)n2)=NO1 (stereo not drawn) [Compound 127, 3-chloro-2-(3-(2-(1-(2-((3-chloropyrazin-2-yl)oxy)acetyl)piperidin-4-yl)thiazol-4-yl)-4,5-dihydroisoxazol-5-yl)phenyl methanesulfonate]	–	≥ 70	≥ 70
